For data set [1], the system named is wild-type MATa strain ATCC 28383. The data set can be described thus: Growth-inhibitory effect on yeast, cell viability by plating (CFU). Format: cell-based, S. cerevisiae. As to conditions: 0.5 g/L, 5 h of exposure, plated on YPD. The procedure: A 20 mL seed culture of wild-type MATa strain ATCC 28383 was grown in SD-THUL medium (0.67 Bacto yeast nitrogen base without amino acids, 2% glucose, 0.14% yeast synthetic drop-out medium without uracil, tryptophan, histidine and leucine). The culture was grown for 24 h, and 2.5 mL of the culture was used to inoculate 7 equal batches of 50 mL fermentation medium (2% (NH4)2SO4, 2% KH2PO4, 0.1% NaCl, 0.6% MgSO4.7H2O, 0.4% yeast extract, 1 mL mineral solution [FeSO4.7H2O 0.028%, ZnSO4.7H2O 0.029%, CuSO4.5H2O 0.008%, Na2MoO4.2H2O 0.024%, CoCl2.6H2O 0.024%, MnSO4.H2O 0.017%, HCl 1 mL], 0.5 mL 50% glucose, 1.5 mL vitamin solution [biotin 0.001%, Ca-pantothenate 0.012%, inositol 0.06%, pyridoxine-HCl 0.012%, thiamine-HCl 0.012%], and 0.5 mL 10% CaCl2) in 250 mL baffled Ehrlenmeyer flasks.
In 6 flasks, nootkatol or glycosylated nootkatol (nootkatol+1 glucose) were added in final concentrations of 0.06, 0.125, and 0.5 g/L. The 7th flask was used as a control and was not treated with nootkatol or glycosylated nootkatol. The cultures were grown at 28° C. and 170 rpm, and the cell viability was measured after 5 h of exposure by plating 100 μL of 1/1000 dilution of cell culture on yeast extract peptone dextrose (YPD) plates.

A short description of data set [2]: In vitro de-glycosylation of nootkatol-glucoside by glycosidase enzymes, LC-MS. Format: biochemical. As to conditions: water control, Delft fermentation medium, 2 hours. The procedure: Identical samples of 990 μl of Delft fermentation medium further comprising 0.1 mg nootkatol-glucoside (Nootkatol-Glc) were each treated with 10 μl of 12 exemplary glycosidase enzymes (listed in Table 3 below) (thus, 1% v/v) for 2 hours. After 2 hours, samples of the reaction mixture were taken, and the de-glycosylation reaction was terminated by addition of an equal volume of ethanol followed by freezing.
The resulting digested samples were analyzed by LC-MS on a BEH C18-column (100 mm×2.1 mm, 5 μm). Mobile phase A was 0.1% formic acid in water, and mobile phase B was 0.1% formic acid in acetonitrile. B concentration gradient was 0-1 min, 1%; 1-5 min, 100%; 5-7 min, 100%; 7-7.1 min, 1%; 7.1-9 min, 1%. The injection volume was 5 μL. Mass spectrometry analysis was carried out on an SQD1 detector (3.4 KV capillary, 37 V cone, 3 V extractor, 0.1 V RF lens) at a source temperature of 150° C. and desolvation temperature of 250° C., with full scan ESI+/−(100-900 amu scan range) and selective ion recording.

In the case of `C=C(C)C1CCC2=CC(OC3OC(CO)C(O)C(O)C3O)CC(C)C2(C)C1` (centres unmarked) [glycosylated nootkatol], in data set [1], the “toxicity (cell viability)” value is listed as “no toxicity was observed”. Moreover, in data set [2], the spontaneous de-glycosylation entry was “weak spontaneous de-glycosylation”.

The record behind these values is US20180327723A1, “Production of Glycosylated Nootkatol in Recombinant Hosts” (Evolva SA, priority 2015, published 2018).
